Experiments:
[1] = target: Vasopressin V1a receptor (Homo sapiens, UniProt P37288); format: cell membranes, Membrane; settings: hek293
[2] = target: T1, Muscarinic acetylcholine receptor M4 (Homo sapiens, UniProt P08173); format: cell membranes, CHO-K1, Membrane; settings: cho-k1
T1 sequence (P08173 whole entry): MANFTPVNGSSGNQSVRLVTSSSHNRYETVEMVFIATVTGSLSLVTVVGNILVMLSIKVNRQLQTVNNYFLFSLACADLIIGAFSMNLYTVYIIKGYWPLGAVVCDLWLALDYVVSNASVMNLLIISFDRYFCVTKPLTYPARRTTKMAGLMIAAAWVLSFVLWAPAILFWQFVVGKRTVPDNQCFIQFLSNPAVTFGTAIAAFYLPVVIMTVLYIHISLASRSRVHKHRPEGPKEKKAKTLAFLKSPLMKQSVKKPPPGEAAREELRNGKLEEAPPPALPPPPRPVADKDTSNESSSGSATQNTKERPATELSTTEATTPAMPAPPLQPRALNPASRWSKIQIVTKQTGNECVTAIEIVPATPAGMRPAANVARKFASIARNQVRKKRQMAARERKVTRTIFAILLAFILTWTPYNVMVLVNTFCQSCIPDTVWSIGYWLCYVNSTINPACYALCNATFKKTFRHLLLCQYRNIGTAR

[3] = target: T2, Calcitonin receptor (Homo sapiens, UniProt P30988); format: cell membranes, Membrane; settings: t47d
T2 sequence (P30988 whole entry): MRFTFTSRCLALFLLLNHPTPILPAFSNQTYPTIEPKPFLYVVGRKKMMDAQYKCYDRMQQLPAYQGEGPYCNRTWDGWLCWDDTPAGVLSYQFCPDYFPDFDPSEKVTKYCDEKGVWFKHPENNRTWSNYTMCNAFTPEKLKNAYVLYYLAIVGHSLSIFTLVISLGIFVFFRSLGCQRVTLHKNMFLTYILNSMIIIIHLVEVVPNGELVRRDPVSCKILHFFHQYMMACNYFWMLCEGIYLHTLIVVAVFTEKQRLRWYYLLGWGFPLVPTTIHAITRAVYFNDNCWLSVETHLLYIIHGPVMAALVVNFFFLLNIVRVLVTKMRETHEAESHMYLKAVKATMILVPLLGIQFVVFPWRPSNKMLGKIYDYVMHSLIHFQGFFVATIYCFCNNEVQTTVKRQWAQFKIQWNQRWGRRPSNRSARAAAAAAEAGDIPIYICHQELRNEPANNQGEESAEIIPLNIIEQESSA

[4] = target: T3, B2 bradykinin receptor (Homo sapiens, UniProt P30411); format: cell membranes, Membrane; settings: chem-1
T3 sequence (P30411 whole entry): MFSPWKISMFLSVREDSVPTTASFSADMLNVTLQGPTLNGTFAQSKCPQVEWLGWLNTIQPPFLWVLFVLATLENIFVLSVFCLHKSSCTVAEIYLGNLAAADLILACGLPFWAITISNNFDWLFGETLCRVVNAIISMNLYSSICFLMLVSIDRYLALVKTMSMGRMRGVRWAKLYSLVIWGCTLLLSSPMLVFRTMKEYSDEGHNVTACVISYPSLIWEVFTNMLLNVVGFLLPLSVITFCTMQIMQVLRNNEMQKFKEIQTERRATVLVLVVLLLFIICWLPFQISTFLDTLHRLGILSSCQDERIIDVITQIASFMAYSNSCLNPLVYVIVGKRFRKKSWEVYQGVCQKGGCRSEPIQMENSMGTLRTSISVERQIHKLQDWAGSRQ

[5] = target: T4, Alpha-1D adrenergic receptor (Homo sapiens, UniProt P25100); format: cell membranes, HEK293, Membrane; settings: hek293
T4 sequence (P25100 whole entry): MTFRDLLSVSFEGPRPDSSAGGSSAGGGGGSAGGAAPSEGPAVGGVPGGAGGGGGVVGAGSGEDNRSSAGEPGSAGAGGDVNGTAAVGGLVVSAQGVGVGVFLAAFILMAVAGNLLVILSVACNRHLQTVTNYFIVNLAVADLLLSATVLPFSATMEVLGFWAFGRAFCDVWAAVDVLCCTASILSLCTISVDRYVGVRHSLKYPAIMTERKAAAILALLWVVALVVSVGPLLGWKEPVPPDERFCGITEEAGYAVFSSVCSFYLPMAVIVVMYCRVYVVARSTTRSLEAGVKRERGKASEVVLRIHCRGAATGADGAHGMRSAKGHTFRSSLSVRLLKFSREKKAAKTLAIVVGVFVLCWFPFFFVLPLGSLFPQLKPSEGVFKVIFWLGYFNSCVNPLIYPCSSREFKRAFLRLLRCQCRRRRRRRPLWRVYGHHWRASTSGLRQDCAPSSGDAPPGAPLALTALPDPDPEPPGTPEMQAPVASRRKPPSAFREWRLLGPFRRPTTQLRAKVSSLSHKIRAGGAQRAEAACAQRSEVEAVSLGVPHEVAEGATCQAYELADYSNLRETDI

[6] = target: T5, Cathepsin G (Homo sapiens, UniProt P08311); format: tissue-based; settings: neutrophil;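 note: inhibition of Cathepsin G enzyme activity, tested on an AMC-conjugated peptide substrate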
T5 sequence (P08311 whole entry): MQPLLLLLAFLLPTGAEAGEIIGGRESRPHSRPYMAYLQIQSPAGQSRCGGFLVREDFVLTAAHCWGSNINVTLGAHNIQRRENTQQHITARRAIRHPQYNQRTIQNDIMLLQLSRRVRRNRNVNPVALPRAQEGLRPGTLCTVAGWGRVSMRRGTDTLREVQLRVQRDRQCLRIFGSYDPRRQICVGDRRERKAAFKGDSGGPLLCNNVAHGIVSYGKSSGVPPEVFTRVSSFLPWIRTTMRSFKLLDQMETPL

[7] = target: 5-hydroxytryptamine receptor 4 (Cavia porcellus, UniProt O70528); format: cell membranes, Dunkin-Hartley, Striatum, Membrane
5-hydroxytryptamine receptor 4, sequence (O70528 whole entry): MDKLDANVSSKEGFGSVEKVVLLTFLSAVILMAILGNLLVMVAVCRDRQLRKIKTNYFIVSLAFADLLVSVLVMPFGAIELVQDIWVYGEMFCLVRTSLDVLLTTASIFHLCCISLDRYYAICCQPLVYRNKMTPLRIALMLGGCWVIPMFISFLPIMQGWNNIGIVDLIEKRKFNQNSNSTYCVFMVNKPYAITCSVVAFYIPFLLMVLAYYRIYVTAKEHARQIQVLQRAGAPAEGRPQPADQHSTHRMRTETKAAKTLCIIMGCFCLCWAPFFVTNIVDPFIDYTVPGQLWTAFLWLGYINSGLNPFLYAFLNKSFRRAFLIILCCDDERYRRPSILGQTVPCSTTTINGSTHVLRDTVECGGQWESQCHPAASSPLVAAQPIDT
Note: in other assays of this panel Not Active means under 50% inhibition at 10 µM.

Vasopressin V1a receptor, sequence (P37288 whole entry): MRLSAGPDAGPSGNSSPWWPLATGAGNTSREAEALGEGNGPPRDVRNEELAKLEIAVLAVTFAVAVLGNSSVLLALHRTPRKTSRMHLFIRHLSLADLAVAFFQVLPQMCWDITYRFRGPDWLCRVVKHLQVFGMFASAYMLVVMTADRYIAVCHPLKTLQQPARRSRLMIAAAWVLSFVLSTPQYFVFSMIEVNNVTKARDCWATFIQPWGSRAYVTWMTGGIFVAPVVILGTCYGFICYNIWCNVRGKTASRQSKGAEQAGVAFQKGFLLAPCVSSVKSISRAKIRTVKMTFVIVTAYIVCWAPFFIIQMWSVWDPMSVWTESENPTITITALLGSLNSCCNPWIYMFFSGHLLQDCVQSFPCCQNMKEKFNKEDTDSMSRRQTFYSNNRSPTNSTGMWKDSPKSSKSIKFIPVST

Cc1cn([C@H]2C[C@H](N=[N+]=[N-])[C@@H](CO)O2)c(=O)[nH]c1=O [ZIDOVUDINE]
Not Active: IC50 [1] | IC50 [2] | IC50 [3] | IC50 [4] | IC50 [5] | IC50 [6] | IC50 [7]

STANNOUS FLUORIDE
Not Active: IC50 [1] | Ki [1] | IC50 [2] | Ki [2] | IC50 [3] | Ki [3] | IC50 [4] | Ki [4] | IC50 [5] | Ki [5] | IC50 [6] | Ki [6] | IC50 [7] | Ki [7]

THIMEROSAL
Not Active: IC50 [1] | Ki [1] | IC50 [2] | Ki [2] | IC50 [3] | Ki [3] | IC50 [4] | Ki [4] | IC50 [5] | Ki [5] | IC50 [6] | Ki [6] | IC50 [7] | Ki [7]

— ChEMBL document CHEMBL1909046, “DrugMatrix in vitro pharmacology data”
